Experimental data reported in patent publication US20210387978A1, “CYCLOBUTYL DIHYDROQUINOLINE SULFONAMIDE COMPOUNDS” (AMGEN INC., priority 2020, published 2021).

Molecular target: T1, Human Nav1.7 (Homo sapiens, UniProt Q15858)
T1 construct: expressed in transfected cells; host or cells: Spiking HEK cells (without Kir2.1 transfection)
Experiment: IonWorks Barracuda (IWB) automated patch clamp assay
Type: cell-based
Details: human Nav1.7 currents, HEK cells, population patch-clamp, state- and use-dependent voltage protocol; read-out: hNaV1.7 IWB-U IC50
Procedure: Ionaworks Barracuda […] Automated Patch Clamp Assay (Same Protocol for Both Human and Mouse)
Human Nav1.7 currents were recorded in population patch-clamp mode with the IWB automated electrophysiology system (Molecular Devices, LLC, Sunnyvale, Calif.). Spiking HEK cells (without Kir2.1 transfection) were cultured and prepared for recordings as previously described for IonWorks Quattro testing^1. The external solution consisted of the following (in mM): NaCl 140, KCl 5, CaCl2 2, MgCl2 1, HEPES 10, and glucose 11, pH 7.4, with N-methyl-D-glucamine at 320 mOsmol. […] From a holding potential of −110 mV, currents were elicited by a train of 26 depolarizations of 150 ms duration to −20 mV at a frequency of 5 Hz. Cells were then clamped to −20 mV for a period of 4 minutes in the presence of a single concentration of test compound. Following this compound incubation period, cells were clamped to −110 mV for three seconds to recover unbound channels and put through the same 26 pulse voltage protocol as above. Peak inward current during the 26th pulse to −20 mV in the presence of compound was divided by the peak inward current evoked by the 26th pulse to −20 mV in the absence of compound to determine percent inhibition. Concentration-response curves of percent inhibition as a function of concentration were generated to calculate IC50 values as described in Kornecook, T. J.; Yin, R.; Altmann, S.; et al. Pharmacologic Characterization of AMG8379, a Potent and Selective Small Molecule Sulfonamide Antagonist of the Voltage-Gated Sodium Channel NaV1. 7.
The potency of the compounds of the present invention were evaluated on human Nav1.7 channels using the above described IonWorks Barracuda automated electrophysiology platform that evaluates the ability of compounds to block sodium conductance through Nav1.7 channels. A voltage-protocol that prosecutes both state-dependent as well as use-dependent inhibition was used as these modes of action are thought to be more relevant for the native state of Nav1.7 channels in pain sensing neurons in vivo.

T1 sequence (Q15858 whole entry): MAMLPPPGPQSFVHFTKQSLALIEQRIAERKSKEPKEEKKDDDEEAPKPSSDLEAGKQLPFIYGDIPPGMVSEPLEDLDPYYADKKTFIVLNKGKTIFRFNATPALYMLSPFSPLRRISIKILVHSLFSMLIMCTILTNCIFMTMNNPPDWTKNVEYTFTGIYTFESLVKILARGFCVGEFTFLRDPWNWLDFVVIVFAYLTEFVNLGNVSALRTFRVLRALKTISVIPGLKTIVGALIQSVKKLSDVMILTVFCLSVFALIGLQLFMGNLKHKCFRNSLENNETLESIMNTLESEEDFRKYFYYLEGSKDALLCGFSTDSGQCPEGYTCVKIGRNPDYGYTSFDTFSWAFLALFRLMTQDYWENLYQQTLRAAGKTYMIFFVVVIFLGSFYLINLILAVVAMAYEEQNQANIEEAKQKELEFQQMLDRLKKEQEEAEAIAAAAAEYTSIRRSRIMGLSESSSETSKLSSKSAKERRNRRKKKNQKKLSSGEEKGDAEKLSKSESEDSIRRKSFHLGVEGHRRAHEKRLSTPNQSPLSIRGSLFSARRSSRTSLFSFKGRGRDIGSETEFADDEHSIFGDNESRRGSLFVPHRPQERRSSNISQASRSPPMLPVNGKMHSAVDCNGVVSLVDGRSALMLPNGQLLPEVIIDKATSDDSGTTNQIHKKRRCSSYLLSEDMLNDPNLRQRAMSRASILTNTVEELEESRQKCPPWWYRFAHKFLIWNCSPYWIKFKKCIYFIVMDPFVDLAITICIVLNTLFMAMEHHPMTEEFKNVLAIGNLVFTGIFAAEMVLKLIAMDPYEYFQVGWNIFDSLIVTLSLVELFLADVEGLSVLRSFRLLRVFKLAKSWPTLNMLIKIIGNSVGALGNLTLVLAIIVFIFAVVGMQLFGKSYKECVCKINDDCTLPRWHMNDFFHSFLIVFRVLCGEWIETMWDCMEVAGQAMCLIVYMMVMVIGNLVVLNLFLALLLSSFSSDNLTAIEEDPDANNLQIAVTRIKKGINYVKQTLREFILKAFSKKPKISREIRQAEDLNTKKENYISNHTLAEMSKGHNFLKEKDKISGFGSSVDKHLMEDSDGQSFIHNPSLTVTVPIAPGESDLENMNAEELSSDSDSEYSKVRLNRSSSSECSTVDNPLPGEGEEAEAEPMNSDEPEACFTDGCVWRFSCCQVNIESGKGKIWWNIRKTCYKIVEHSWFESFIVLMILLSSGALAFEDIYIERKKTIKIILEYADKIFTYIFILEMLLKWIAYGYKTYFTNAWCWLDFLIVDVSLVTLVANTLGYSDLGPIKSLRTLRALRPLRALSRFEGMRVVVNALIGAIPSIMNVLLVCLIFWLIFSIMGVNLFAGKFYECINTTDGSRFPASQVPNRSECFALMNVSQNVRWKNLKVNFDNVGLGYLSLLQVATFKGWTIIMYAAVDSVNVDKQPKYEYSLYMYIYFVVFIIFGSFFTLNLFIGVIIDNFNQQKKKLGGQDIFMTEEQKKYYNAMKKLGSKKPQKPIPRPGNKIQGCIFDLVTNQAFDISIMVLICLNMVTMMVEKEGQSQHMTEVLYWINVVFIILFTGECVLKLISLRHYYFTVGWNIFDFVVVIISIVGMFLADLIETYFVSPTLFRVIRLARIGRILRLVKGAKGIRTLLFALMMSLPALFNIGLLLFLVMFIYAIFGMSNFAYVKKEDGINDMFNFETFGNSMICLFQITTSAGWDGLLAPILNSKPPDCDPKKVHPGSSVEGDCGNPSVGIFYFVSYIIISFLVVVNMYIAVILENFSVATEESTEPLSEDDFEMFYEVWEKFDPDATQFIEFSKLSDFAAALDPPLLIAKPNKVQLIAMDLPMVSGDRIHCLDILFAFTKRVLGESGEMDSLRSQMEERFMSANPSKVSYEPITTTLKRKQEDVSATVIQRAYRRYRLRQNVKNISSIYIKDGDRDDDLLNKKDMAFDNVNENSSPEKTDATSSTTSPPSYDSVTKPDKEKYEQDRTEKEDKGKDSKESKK

First: COc1cc(C2CC(C(C)(C)C)C2)c(F)cc1-n1c(=O)ccc2cc(S(=O)(=O)Nc3ccon3)ccc21 (atropisomer, axis not shown; (P)) [Example 3, (P)-1-(4-(3-(tert-butyl)cyclobutyl)-5-fluoro-2-methoxyphenyl)-N-(isoxazol-3-yl)-2-oxo-1,2-dihydroquinoline-6-sulfonamide]
Second: COc1cc(C2CCC2)c(F)cc1-n1c(=O)ccc2cc(S(=O)(=O)Nc3ccon3)ccc21 (atropisomer, axis not shown; (P)) [Example 14, (P)-1-(4-cyclobutyl-5-fluoro-2-methoxyphenyl)-N-(isoxazol-3-yl)-2-oxo-1,2-dihydroquinoline-6-sulfonamide]
The IC50 of the first is 2.1-fold higher: 33 nM for the first, 16 nM for the second.

First: COc1cc(C2CC(F)(F)C2)c(F)cc1-n1c(=O)ccc2cc(S(=O)(=O)Nc3ccon3)ccc21 (atropisomer, axis not shown; (P)) [Example 4, (P)-1-(4-(3,3-difluorocyclobutyl)-5-fluoro-2-methoxyphenyl)-N-(isoxazol-3-yl)-2-oxo-1,2-dihydroquinoline-6-sulfonamide]
Second: COc1cc(C2CC(F)(C(F)(F)F)C2)c(F)cc1-n1c(=O)ccc2cc(S(=O)(=O)Nc3ccon3)ccc21 (atropisomer, axis not shown; (P)) [Example 5, (P)-1-(5-fluoro-4-(3-fluoro-3-(trifluoromethyl)cyclobutyl)-2-methoxyphenyl)-N-(isoxazol-3-yl)-2-oxo-1,2-dihydroquinoline-6-sulfonamide]
The IC50 of the first is 7.5-fold higher: 15 nM for the first, 2 nM for the second.

Going from `COc1cc([C@H]2C[C@@](F)(C(F)(F)F)C2)c(F)cc1-n1c(=O)ccc2cc(S(=O)(=O)Nc3ccon3)ccc21` (atropisomer, axis not shown; (P)) [Example 8, trans-(P)-1-(5-fluoro-4-(3-fluoro-3-(trifluoromethyl)cyclobutyl)-2-methoxyphenyl)-N-(isoxazol-3-yl)-2-oxo-1,2-dihydroquinoline-6-sulfonamide] to `COc1cc([C@H]2C[C@](F)(C(F)(F)F)C2)c(F)cc1-n1c(=O)ccc2cc(S(=O)(=O)Nc3ccon3)ccc21` (atropisomer, axis not shown; (P)) [Example 9, cis-(P)-1-(5-fluoro-4-(3-fluoro-3-(trifluoromethyl)cyclobutyl)-2-methoxyphenyl)-N-(isoxazol-3-yl)-2-oxo-1,2-dihydroquinoline-6-sulfonamide], the IC50 falls from 5 nM to 2 nM (2.5-fold).

Going from `COc1cc([C@H]2C[C@](F)(C(F)(F)F)C2)c(Cl)cc1-n1c(=O)ccc2cc(S(=O)(=O)Nc3ccon3)ccc21` (atropisomer, axis not shown; (P)) [Example 10, cis-(P)-1-(5-chloro-4-(3-fluoro-3-(trifluoromethyl)cyclobutyl)-2-methoxyphenyl)-N-(isoxazol-3-yl)-2-oxo-1,2-dihydroquinoline-6-sulfonamide] to `COc1cc([C@H]2C[C@@](F)(C(F)(F)F)C2)c(Cl)cc1-n1c(=O)ccc2cc(S(=O)(=O)Nc3ccon3)ccc21` (atropisomer, axis not shown; (P)) [Example 11, trans-(P)-1-(5-chloro-4-(3-fluoro-3-(trifluoromethyl)cyclobutyl)-2-methoxyphenyl)-N-(isoxazol-3-yl)-2-oxo-1,2-dihydroquinoline-6-sulfonamide], the IC50 falls from 8 nM to 2 nM (4-fold).

`COc1cc([C@H]2C[C@@H](C(F)(F)F)C2)c(Cl)cc1-n1c(=O)ccc2cc(S(=O)(=O)Nc3ncccn3)ccc21` (atropisomer, axis not shown; (P)) [Example 16, cis-(P)-1-(5-chloro-2-methoxy-4-(3-(trifluoromethyl)cyclobutyl)phenyl)-2-oxo-N-(pyrimidin-2-yl)-1,2-dihydroquinoline-6-sulfonamide] and `COc1cc([C@H]2C[C@H](C(F)(F)F)C2)c(Cl)cc1-n1c(=O)ccc2cc(S(=O)(=O)Nc3ncccn3)ccc21` (atropisomer, axis not shown; (P)) [Example 17, trans-(P)-1-(5-chloro-2-methoxy-4-(3-(trifluoromethyl)cyclobutyl)phenyl)-2-oxo-N-(pyrimidin-2-yl)-1,2-dihydroquinoline-6-sulfonamide] are within 1.5-fold of each other in IC50: 18 nM for the first, 15 nM for the second.

Compared with `COc1cc(C2CCC2)c(Cl)cc1-n1c(=O)ccc2cc(S(=O)(=O)Nc3ncccn3)ccc21` (atropisomer, axis not shown; (P)) [Example 18, (P)-1-(5-chloro-4-cyclobutyl-2-methoxyphenyl)-2-oxo-N-(pyrimidin-2-yl)-1,2-dihydroquinoline-6-sulfonamide], `COc1cc(C2CCC2)c(C)cc1-n1c(=O)ccc2cc(S(=O)(=O)Nc3ncccn3)ccc21` (atropisomer, axis not shown; (P)) [Example 27, (P)-1-(4-Cyclobutyl-2-Methoxy-5-Methylphenyl)-2-Oxo-N-(Pyrimidin-2-Yl)-1,2-Dihydro Quinoline-6-Sulfonamide] is 4.7-fold higher in IC50: 22 nM for the first, 104 nM for the second. The first is the more potent here.

`COc1cc([C@H]2C[C@H](C(F)(F)F)C2)c(Cl)cc1-n1c(=O)ccc2cc(S(=O)(=O)Nc3cccnn3)ccc21` (atropisomer, axis not shown; (P)) [Example 19, trans-(P)-1-(5-chloro-2-methoxy-4-(3-(trifluoromethyl)cyclobutyl)phenyl)-2-oxo-N-(pyridazin-3-yl)-1,2-dihydroquinoline-6-sulfonamide] and `COc1cc([C@H]2C[C@H](C(F)(F)F)C2)c(C)cc1-n1c(=O)ccc2cc(S(=O)(=O)Nc3ccon3)ccc21` (atropisomer, axis not shown; (P)) [Example 20, trans-(P)—N-(isoxazol-3-yl)-1-(2-methoxy-5-methyl-4-(3-(trifluoromethyl)cyclobutyl)phenyl)-2-oxo-1,2-dihydroquinoline-6-sulfonamide] are within 1.5-fold of each other in IC50: 15 nM for the first, 12 nM for the second.

Going from `COc1cc(C2CCC2)c(Cl)cc1-n1c(=O)ccc2cc(S(=O)(=O)Nc3ccon3)ccc21` (atropisomer, axis not shown; (P)) [Example 21, (P)-1-(5-chloro-4-cyclobutyl-2-methoxyphenyl)-N-(isoxazol-3-yl)-2-oxo-1,2-dihydroquinoline-6-sulfonamide] to `COc1cc(C2CCC2)c(C)cc1-n1c(=O)ccc2cc(S(=O)(=O)Nc3ccon3)ccc21` (atropisomer, axis not shown; (P)) [Example 22, (P)-1-(4-cyclobutyl-2-methoxy-5-methylphenyl)-N-(isoxazol-3-yl)-2-oxo-1,2-dihydroquinoline-6-sulfonamide], the IC50 rises from 12 nM to 50 nM (4.2-fold). The first is the more potent here.

`COc1cc(C2CCC2)c(F)cc1-n1c(=O)ccc2cc(S(=O)(=O)Nc3cccnn3)ccc21` (atropisomer, axis not shown; (P)) [Example 23, (P)-1-(4-cyclobutyl-5-fluoro-2-methoxyphenyl)-2-oxo-N-(pyridazin-3-yl)-1,2-dihydroquinoline-6-sulfonamide] and `COc1cc(C2CCC2)c(C)cc1-n1c(=O)ccc2cc(S(=O)(=O)Nc3cccnn3)ccc21` (atropisomer, axis not shown; (P)) [Example 30, (P)-1-(4-cyclobutyl-2-methoxy-5-methylphenyl)-2-oxo-N-(pyridazin-3-yl)-1,2-dihydroquinoline-6-sulfonamide] are within 1.5-fold of each other in IC50: 102 nM for the first, 137 nM for the second.

First: COc1cc(C2CCC2)c(F)cc1-n1c(=O)ccc2cc(S(=O)(=O)Nc3ncco3)ccc21 (atropisomer, axis not shown; (P)) [Example 24, (P)-1-(4-cyclobutyl-5-fluoro-2-methoxyphenyl)-N-(oxazol-2-yl)-2-oxo-1,2-dihydroquinoline-6-sulfonamide]
Second: COc1cc(C2CCC2)ccc1-n1c(=O)ccc2cc(S(=O)(=O)Nc3ncco3)ccc21 (atropisomer, axis not shown; (P)) [Example 29, (P)-1-(4-cyclobutyl-2-methoxyphenyl)-N-(oxazol-2-yl)-2-oxo-1,2-dihydroquinoline-6-sulfonamide]
The IC50 of the first is 2.8-fold lower: 13 nM for the first, 37 nM for the second.

Compared with `COc1cc(C2CCC2)ccc1-n1c(=O)ccc2cc(S(=O)(=O)Nc3ccon3)ccc21` (atropisomer, axis not shown; (P)) [Example 25, (P)-1-(4-cyclobutyl-2-methoxyphenyl)-N-(isoxazol-3-yl)-2-oxo-1,2-dihydroquinoline-6-sulfonamide], `COc1cc(C2CCC2)ccc1-n1c(=O)ccc2cc(S(=O)(=O)Nc3ncccn3)ccc21` (atropisomer, axis not shown; (P)) [Example 26, (P)-1-(4-cyclobutyl-2-methoxyphenyl)-2-oxo-N-(pyrimidin-2-yl)-1,2-dihydroquinoline-6-sulfonamide] is 2.2-fold higher in IC50: 37 nM for the first, 80 nM for the second. The first is the more potent here.

Work on `COc1cc(C2CCC2)c(F)cc1-n1c(=O)ccc2cc(S(=O)(=O)Nc3ncccn3)ccc21` (atropisomer, axis not shown; (P)) [Example 28, (P)-1-(4-cyclobutyl-5-fluoro-2-methoxyphenyl)-2-oxo-N-(pyrimidin-2-yl)-1,2-dihydroquinoline-6-sulfonamide] yielded an IC50 of 54 nM.
